Earlier results in patent US11793200B2, “Hypochlorous acid disinfectant and its production method” (SUPER AQUA INTERNATIONAL CO., LTD., priority 2019, dated 2023).

System: coliform
Settings: compared with hypochlorite ion (CLO-); both effective free chlorine; FIG. 2

SMILES: OCl [hypochlorous acid (HCLO), Hypochlorous acid]
- sterilization of hypochlorous acid (HCLO) relative to hypochlorite ion (CLO-): 80 times
